# In the OligoGym collection:
# Where “and” joins values, the source holds several entries; their conditions need not be identical. Equal values may be shown once. HELM strings list units from the 5' end as sugar, base in round brackets, then linkage (d deoxyribose, r ribose, m 2'-O-methyl, p phosphodiester). Strings are as the collection lists them, not checked against the first reports. ss, as = sense and antisense strand; [lna] = locked nucleic acid (LNA); [una] = unlocked nucleic acid; [s4r] = 4'-thioribose; [fl2r] = 2'-fluoro
# Settings: siRNA
# Further: test system not given here.
row,Substance,target mRNA knockdown
1,RNA1{r(G)p.r(A)p.r(C)p.r(G)p.r(U)p.r(A)p.r(A)p.r(A)p.r(C)p.r(G)p.r(G)p.r(C)p.r(C)p.r(A)p.r(C)p.r(A)p.r(A)p.r(G)p.r(U)p.[lna](T)p.[lna](C)}|RNA2{r(A)p.r(C)p.[lna](T)p.r(U)p.r(G)p.[lna](T)p.r(G)p.r(G)p.r(C)p.r(C)p.r(G)p.r(U)p.r(U)p.[lna](T)p.r(A)p.r(C)p.r(G)p.[lna](T)p.r(C)p.[lna](G)p.[lna](C)}$$$RNA1{StrandType:ss}|RNA2{StrandType:as}$,3%
2,RNA1{r(G)p.r(G)p.r(A)p.r(G)p.r(C)p.m(U)p.m(A)p.r(G)p.r(A)p.r(C)p.r(G)p.r(G)p.r(G)p.m(U)p.r(A)p.r(C)p.r(G)p.r(A)p.r(G)p.r(T)p.r(T)}|RNA2{r(C)p.r(U)p.r(C)p.r(G)p.r(U)p.r(A)p.r(C)p.r(C)p.r(C)p.r(G)p.r(U)p.r(C)p.m(U)p.r(A)p.r(G)p.r(C)p.r(U)p.r(C)p.r(C)p.r(T)p.r(T)}$$$RNA1{StrandType:ss}|RNA2{StrandType:as}$,81%
3,RNA1{r(A)p.r(U)p.r(C)p.r(U)p.r(G)p.r(A)p.r(A)p.r(G)p.r(A)p.r(A)p.r(G)p.r(G)p.r(A)p.r(G)p.r(A)p.r(A)p.r(A)p.r(A)p.r(A)p.[lna](T)p.[lna](T)}|RNA2{r(U)p.r(U)p.r(U)p.r(U)p.r(U)p.r(C)p.r(U)p.r(C)p.r(C)p.r(U)p.r(U)p.r(C)p.r(U)p.r(U)p.r(C)p.r(A)p.r(G)p.r(A)p.r(U)p.[lna](T)p.[lna](T)}$$$RNA1{StrandType:ss}|RNA2{StrandType:as}$,93%
4,RNA1{m(G)p.r(G)p.m(G)p.r(A)p.m(G)p.r(G)p.m(U)p.r(C)p.m(U)p.r(U)p.m(A)p.r(G)p.m(A)p.r(A)p.m(A)p.r(A)p.m(C)p.r(A)p.m(C)p.r(T)p.r(T)}|RNA2{r(G)p.r(U)p.r(G)p.r(U)p.r(U)p.r(U)p.r(U)p.r(C)p.r(U)p.r(A)p.r(A)p.r(G)p.r(A)p.r(C)p.r(C)p.r(U)p.r(C)p.r(C)p.r(C)p.r(T)p.r(T)}$$$RNA1{StrandType:ss}|RNA2{StrandType:as}$,17%
5,RNA1{m(A)p.r(A)p.m(G)p.r(G)p.m(A)p.r(G)p.m(A)p.r(U)p.m(C)p.r(A)p.m(A)p.r(C)p.m(A)p.r(U)p.m(U)p.r(U)p.m(U)p.r(C)p.m(A)p.r(T)p.r(T)}|RNA2{m(U)p.r(G)p.m(A)p.r(A)p.m(A)p.r(A)p.m(U)p.r(G)p.m(U)p.r(U)p.m(G)p.r(A)p.m(U)p.r(C)p.m(U)p.r(C)p.m(C)p.r(U)p.m(U)p.r(T)p.r(T)}$$$RNA1{StrandType:ss}|RNA2{StrandType:as}$,75%
6,RNA1{r(C)p.r(G)p.r(U)p.r(A)p.r(C)p.r(G)p.r(C)p.r(G)p.r(G)p.r(A)p.r(A)p.r(U)p.r(A)p.r(C)p.r(U)p.[s4r](U)p.[s4r](C)p.[s4r](G)p.[s4r](A)p.r(T)p.r(T)}|RNA2{r(U)p.r(C)p.r(G)p.r(A)p.r(A)p.r(G)p.r(U)p.r(A)p.r(U)p.r(U)p.r(C)p.r(C)p.r(G)p.r(C)p.r(G)p.r(U)p.r(A)p.r(C)p.r(G)p.r(T)p.r(T)}$$$RNA1{StrandType:ss}|RNA2{StrandType:as}$,94.3%
7,RNA1{r(G)p.r(A)p.r(C)p.r(G)p.r(U)p.r(A)p.r(A)p.r(A)p.r(C)p.r(G)p.r(G)p.r(C)p.r(C)p.r(A)p.r(C)p.r(A)p.r(A)p.r(G)p.r(U)p.[lna](T)p.[lna](C)}|RNA2{[fl2r](A)p.m(C)p.[fl2r](U)p.m(U)p.[fl2r](G)p.m(U)p.[fl2r](G)p.m(G)p.[fl2r](C)p.m(C)p.[fl2r](G)p.m(U)p.[fl2r](U)p.m(U)p.[fl2r](A)p.m(C)p.[fl2r](G)p.m(U)p.[fl2r](C)p.m(G)p.[fl2r](C)}$$$RNA1{StrandType:ss}|RNA2{StrandType:as}$,81.2%
8,RNA1{[fl2r](A)p.r(A)p.[fl2r](G)p.r(G)p.[fl2r](C)p.r(C)p.[fl2r](A)p.r(A)p.[fl2r](C)p.r(C)p.[fl2r](G)p.r(A)p.[fl2r](U)p.r(A)p.[fl2r](C)p.r(U)p.[fl2r](U)p.r(C)p.[fl2r](U)p.r(T)p.r(T)}|RNA2{r(A)p.r(G)p.r(A)p.r(A)p.r(G)p.[fl2r](U)p.r(A)p.[fl2r](U)p.r(C)p.r(G)p.r(G)p.[fl2r](U)p.[fl2r](U)p.r(G)p.r(G)p.r(C)p.r(C)p.[fl2r](U)p.[fl2r](U)p.r(T)p.r(T)}$$$RNA1{StrandType:ss}|RNA2{StrandType:as}$,46%
9,RNA1{r(A)p.r(A)p.r(C)p.r(U)p.r(C)p.r(U)p.r(A)p.r(C)p.[fl2r](U)p.r(G)p.r(U)p.r(G)p.r(G)p.r(A)p.r(G)p.r(U)p.r(C)p.r(G)p.r(G)p.r(T)p.r(T)}|RNA2{r(C)p.r(C)p.r(G)p.r(A)p.r(C)p.r(U)p.r(C)p.[fl2r](C)p.r(A)p.r(C)p.r(A)p.r(G)p.[fl2r](U)p.r(A)p.r(G)p.r(A)p.r(G)p.r(U)p.r(U)p.r(T)p.r(T)}$$$RNA1{StrandType:ss}|RNA2{StrandType:as}$,72%
10,RNA1{r(U)p.r(C)p.r(C)p.r(U)p.r(C)p.r(G)p.r(U)p.r(C)p.r(G)p.r(U)p.r(C)p.r(U)p.r(G)p.r(U)p.r(U)p.r(C)p.m(U)p.r(A)p.r(A)p.r(T)p.r(T)}|RNA2{r(U)p.m(U)p.r(A)p.r(G)p.r(A)p.r(A)p.r(C)p.r(A)p.r(G)p.r(A)p.r(C)p.r(G)p.r(A)p.r(C)p.r(G)p.r(A)p.r(G)p.r(G)p.r(A)p.r(T)p.r(T)}$$$RNA1{StrandType:ss}|RNA2{StrandType:as}$,84%
11,RNA1{r(G)p.r(U)p.r(A)p.r(U)p.r(G)p.r(A)p.r(C)p.r(C)p.r(G)p.r(A)p.r(C)p.r(U)p.r(A)p.r(C)p.r(G)p.r(C)p.r(G)p.r(U)p.r(A)p.r(T)p.r(T)}|RNA2{r(U)p.r(U)p.r(C)p.r(A)p.r(G)p.r(U)p.r(G)p.r(U)p.r(G)p.r(A)p.r(U)p.r(G)p.r(A)p.r(C)p.r(A)p.r(C)p.[una](U)p.r(U)p.r(G)p.r(T)p.r(T)}$$$RNA1{StrandType:ss}|RNA2{StrandType:as}$,87%
12,RNA1{r(C)p.r(C)p.r(G)p.r(C)p.r(C)p.r(C)p.r(G)p.r(G)p.r(C)p.r(G)p.r(G)p.r(C)p.m(G)p.r(C)p.r(C)p.r(U)p.r(U)p.m(U)p.m(A)p.r(T)p.r(T)}|RNA2{m(U)p.m(A)p.r(A)p.r(A)p.r(G)p.r(G)p.r(C)p.r(G)p.r(C)p.r(C)p.r(G)p.r(C)p.r(C)p.r(G)p.r(G)p.r(G)p.r(C)p.r(G)p.r(G)p.r(T)p.r(T)}$$$RNA1{StrandType:ss}|RNA2{StrandType:as}$,85%
13,RNA1{[fl2r](A)p.r(G)p.[fl2r](A)p.r(G)p.[fl2r](A)p.r(G)p.[fl2r](G)p.r(U)p.[fl2r](G)p.r(G)p.[fl2r](A)p.r(G)p.[fl2r](G)p.r(U)p.[fl2r](A)p.r(U)p.[fl2r](C)p.r(U)p.[fl2r](C)p.r(T)p.r(T)}|RNA2{r(G)p.[fl2r](A)p.r(G)p.[fl2r](A)p.r(U)p.[fl2r](A)p.r(C)p.r(C)p.r(U)p.r(C)p.r(C)p.[fl2r](A)p.r(C)p.r(C)p.r(U)p.r(C)p.r(U)p.r(C)p.r(U)p.r(T)p.r(T)}$$$RNA1{StrandType:ss}|RNA2{StrandType:as}$,68%
14,RNA1{r(G)p.r(U)p.r(A)p.r(U)p.r(G)p.r(A)p.r(C)p.r(C)p.r(G)p.r(A)p.r(C)p.r(U)p.r(A)p.r(C)p.r(G)p.r(C)p.r(G)p.r(U)p.r(A)p.r(T)p.r(T)}|RNA2{r(U)p.[una](U)p.r(C)p.r(A)p.r(G)p.r(U)p.r(G)p.r(U)p.r(G)p.r(A)p.r(U)p.r(G)p.r(A)p.r(C)p.r(A)p.r(C)p.r(U)p.r(U)p.r(G)p.r(T)p.r(T)}$$$RNA1{StrandType:ss}|RNA2{StrandType:as}$,0% and 2%
15,RNA1{r(A)p.r(G)p.r(G)p.r(A)p.r(C)p.r(G)p.r(G)p.m(U)p.r(A)p.r(C)p.r(U)p.r(U)p.m(U)p.r(C)p.r(G)p.m(A)p.r(A)p.r(A)p.r(G)p.r(T)p.r(T)}|RNA2{r(C)p.r(U)p.r(U)p.r(U)p.r(C)p.r(G)p.r(A)p.r(A)p.r(A)p.r(G)p.m(U)p.r(A)p.r(C)p.r(C)p.r(G)p.r(U)p.r(C)p.r(C)p.r(U)p.r(T)p.r(T)}$$$RNA1{StrandType:ss}|RNA2{StrandType:as}$,44%
16,RNA1{r(C)p.[fl2r](U)p.r(G)p.r(A)p.r(C)p.r(C)p.r(G)p.r(G)p.r(A)p.r(A)p.r(G)p.r(C)p.r(G)p.r(C)p.r(U)p.r(U)p.r(A)p.r(A)p.r(A)p.r(T)p.r(T)}|RNA2{r(U)p.r(U)p.[fl2r](U)p.r(A)p.r(A)p.r(G)p.r(C)p.r(G)p.r(C)p.r(U)p.r(U)p.r(C)p.r(C)p.r(G)p.r(G)p.r(U)p.r(C)p.r(A)p.r(G)p.r(T)p.r(T)}$$$RNA1{StrandType:ss}|RNA2{StrandType:as}$,87%
17,RNA1{m(G)p.r(A)p.m(A)p.r(G)p.m(A)p.r(G)p.m(U)p.r(U)p.m(A)p.r(A)p.m(C)p.r(C)p.m(C)p.r(G)p.m(G)p.r(G)p.m(A)p.r(C)p.r(U)p.r(T)p.r(T)}|RNA2{r(A)p.r(G)p.r(U)p.r(C)p.r(C)p.r(C)p.r(G)p.r(G)p.r(G)p.r(U)p.r(U)p.r(A)p.r(A)p.r(C)p.r(U)p.r(C)p.r(U)p.r(U)p.r(C)p.r(T)p.r(T)}$$$RNA1{StrandType:ss}|RNA2{StrandType:as}$,17%
18,RNA1{r(G)p.r(G)p.r(C)p.r(G)p.r(G)p.r(G)p.r(C)p.r(U)p.r(C)p.r(U)p.r(U)p.r(U)p.r(C)p.r(C)p.m(U)p.r(A)p.r(U)p.r(U)p.r(C)p.r(T)p.r(T)}|RNA2{r(G)p.r(A)p.r(A)p.m(U)p.r(A)p.r(G)p.r(G)p.r(A)p.r(A)p.r(A)p.r(G)p.r(A)p.r(G)p.r(C)p.r(C)p.r(C)p.r(G)p.r(C)p.r(C)p.r(T)p.r(T)}$$$RNA1{StrandType:ss}|RNA2{StrandType:as}$,69%
19,RNA1{r(G)p.r(A)p.r(A)p.r(A)p.r(C)p.r(U)p.r(G)p.r(G)p.[fl2r](U)p.r(A)p.r(C)p.r(U)p.r(U)p.r(U)p.r(C)p.r(C)p.r(C)p.r(C)p.r(C)p.r(T)p.r(T)}|RNA2{r(G)p.r(G)p.r(G)p.r(G)p.r(G)p.r(A)p.r(A)p.r(A)p.r(G)p.[fl2r](U)p.r(A)p.r(C)p.r(C)p.r(A)p.r(G)p.r(U)p.r(U)p.r(U)p.r(C)p.r(T)p.r(T)}$$$RNA1{StrandType:ss}|RNA2{StrandType:as}$,58%
20,RNA1{r(A)p.r(G)p.[fl2r](U)p.r(A)p.r(A)p.[fl2r](U)p.[fl2r](C)p.[fl2r](C)p.r(G)p.r(G)p.r(A)p.[fl2r](C)p.[fl2r](U)p.[fl2r](C)p.r(A)p.r(A)p.[fl2r](C)p.[fl2r](U)p.[fl2r](C)p.r(T)p.r(T)}|RNA2{r(G)p.r(A)p.r(G)p.r(U)p.r(U)p.r(G)p.r(A)p.r(G)p.r(U)p.r(C)p.r(C)p.r(G)p.r(G)p.r(A)p.r(U)p.r(U)p.r(A)p.r(C)p.r(U)p.r(T)p.r(T)}$$$RNA1{StrandType:ss}|RNA2{StrandType:as}$,59%
